Assay results as given in US6376497B1, “Antifungal azole derivatives having a fluorinated vinyl group and process for preparing same” (Korea Research Institute of Chemical Technology, priority 1999, dated 2002).
Converted amounts (≈) assume the structure as drawn.

Columns and labels:
Assay in all cases: In vitro antifungal activity, microbroth dilution MIC
Assay type in all cases: cell-based
[1] = system: Aspergillus furnigatus B. 19119; details: 4 to 48 hours; for Minimal inhibitory concentration(MIC), A furnigatus B. 19119: RPMI-1640, 35° C., no growth observed; for Minimal inhibitory concentration (MIC): A furnigatus B. 19119, RPMI-1640, 35° C.
How it was run: (§1)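 Broth microdilution adapted from NCCLS M27, in RPMI-1640 with 0.165 M MOPS, pH 7.0. Yeast or mould inoculum at 2×10^3 CFU/ml was mixed 1:1 with DMSO-derived compound solutions (200 to 0.10 μg/ml before mixing) and incubated at 35 °C for 4 to 48 h. MIC was the concentration showing no growth.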

[2] = system: Aspergillus niger A. 16404; details: 4 to 48 hours; for Minimal inhibitory concentration(MIC), A. niger A. 16404: RPMI-1640, 35° C., no growth observed; for Minimal inhibitory concentration (MIC): A. niger A. 16404, RPMI-1640, 35° C.
How it was run: as §1

[3] = system: Candida albicans A. 10231; details: 4 to 48 hours; for Minimal inhibitory concentration (MIC): C. albicans A. 10231, RPMI-1640, 35° C.; for Minimal inhibitory concentration(MIC), C. albicans A. 10231: RPMI-1640, 35° C., no growth observed
How it was run: as §1

[4] = system: Candida albicans C1-2; details: 4 to 48 hours; for Minimal inhibitory concentration (MIC): C. albicans C1-2, RPMI-1640, 35° C.; for Minimal inhibitory concentration(MIC), C. albicans C1-2: RPMI-1640, 35° C., no growth observed
How it was run: as §1

[5] = system: Candida albicans IFO. 1385; details: 4 to 48 hours; for Minimal inhibitory concentration(MIC), C. albicans IFO. 1385: RPMI-1640, 35° C., no growth observed; for Minimal inhibitory concentration (MIC): C. albicans IFO. 1385, RPMI-1640, 35° C.
How it was run: as §1

[6] = system: Candida krusei K. 11655; details: 4 to 48 hours; for Minimal inhibitory concentration(MIC), C. krusei K. 11655: RPMI-1640, 35° C., no growth observed; for Minimal inhibitory concentration (MIC): C. krusei K. 11655, RPMI-1640, 35° C.
How it was run: as §1

[7] = system: Candida parapsitosis A. 7330; details: 4 to 48 hours; for Minimal inhibitory concentration(MIC), C. parapsitosis A. 7330: RPMI-1640, 35° C., no growth observed; for Minimal inhibitory concentration (MIC): C. parapsitosis A. 7330, RPMI-1640, 35° C.
How it was run: as §1

[8] = system: Candida pseudotropicalis K. 11658; details: 4 to 48 hours; for Minimal inhibitory concentration(MIC), C. pseudotropicalis K. 11658: RPMI-1640, 35° C., no growth observed; for Minimal inhibitory concentration (MIC): C. pseudotropicalis K. 11658, RPMI-1640, 35° C.
How it was run: as §1

[9] = system: Candida tropicalis A. 13803; details: 4 to 48 hours; for Minimal inhibitory concentration(MIC), C. tropicalis A. 13803: RPMI-1640, 35° C., no growth observed; for Minimal inhibitory concentration (MIC): C. tropicalis A. 13803, RPMI-1640, 35° C.
How it was run: as §1

[10] = system: Cryptococcus neoformans A. 34144; details: 4 to 48 hours; for Minimal inhibitory concentration(MIC), Cry. neoformans A. 34144: RPMI-1640, 35° C., no growth observed; for Minimal inhibitory concentration (MIC): Cry. neoformans A. 34144, RPMI-1640, 35° C.
How it was run: as §1

[11] = system: Cryptococcus neoformans B. 42419; details: 4 to 48 hours; for Minimal inhibitory concentration(MIC), Cry. neoformans B. 42419: RPMI-1640, 35° C., no growth observed; for Minimal inhibitory concentration (MIC): Cry. neoformans B. 42419, RPMI-1640, 35° C.
How it was run: as §1

[12] = system: Cryptococcus neoformans IFM. 40092; details: 4 to 48 hours; for Minimal inhibitory concentration(MIC), Cry. neoformans IFM. 40092: RPMI-1640, 35° C., no growth observed; for Minimal inhibitory concentration (MIC): Cry. neoformans IFM. 40092, RPMI-1640, 35° C.
How it was run: as §1

[13] = system: Torulopsis glabrata B. 16205; details: 4 to 48 hours; for Minimal inhibitory concentration(MIC), T. glabrata B. 16205: RPMI-1640, 35° C., no growth observed; for Minimal inhibitory concentration (MIC): T. glabrata B. 16205, RPMI-1640, 35° C.
How it was run: as §1

[14] = system: Trichophyton mentagrophytes A. 9129; details: 4 to 48 hours; for Minimal inhibitory concentration(MIC), T. mentagrophytes A. 9129: RPMI-1640, 35° C., no growth observed; for Minimal inhibitory concentration (MIC): T. mentagrophytes A. 9129, RPMI-1640, 35° C.
How it was run: as §1

[15] = system: Trichophyton mentagrophytes B. 32663; details: 4 to 48 hours; for Minimal inhibitory concentration(MIC), T. mentagrophytes B. 32663: RPMI-1640, 35° C., no growth observed; for Minimal inhibitory concentration (MIC): T. mentagrophytes B. 32663, RPMI-1640, 35° C.
How it was run: as §1

Row | Minimal inhibitory concentration(MIC), A furnigatus B. 19119 [1] [µg/mL] | Minimal inhibitory concentration(MIC), A. niger A. 16404 [2] [µg/mL] | Minimal inhibitory concentration (MIC) [3] [µg/mL] | Minimal inhibitory concentration (MIC) [4] [µg/mL] | Minimal inhibitory concentration(MIC), C. albicans IFO. 1385 [5] [µg/mL] | Minimal inhibitory concentration(MIC), C. krusei K. 11655 [6] [µg/mL] | Minimal inhibitory concentration(MIC), C. parapsitosis A. 7330 [7] [µg/mL] | Minimal inhibitory concentration(MIC), C. pseudotropicalis K. 11658 [8] [µg/mL] | Minimal inhibitory concentration(MIC), C. tropicalis A. 13803 [9] [µg/mL] | Minimal inhibitory concentration(MIC), Cry. neoformans A. 34144 [10] [µg/mL] | Minimal inhibitory concentration(MIC), Cry. neoformans B. 42419 [11] [µg/mL] | Minimal inhibitory concentration(MIC), Cry. neoformans IFM. 40092 [12] [µg/mL] | Minimal inhibitory concentration(MIC), T. glabrata B. 16205 [13] [µg/mL] | Minimal inhibitory concentration(MIC), T. mentagrophytes A. 9129 [14] [µg/mL] | Minimal inhibitory concentration(MIC), T. mentagrophytes B. 32663 [15] [µg/mL] | Minimal inhibitory concentration(MIC), C. albicans A. 10231 [3] [µg/mL] | Minimal inhibitory concentration(MIC), C. albicans C1-2 [4] [µg/mL] | Compound | also measured
1 | >100 | >100 | 250 | 25.0 | 1.56 | 25.0 | 100 | 12.5 | 25.0 | 3.13 | 3.13 | 1.56 | 25.0 | 12.5 | 12.5 |  |  | CCc1ccc(C=C(F)OCC2COC(Cn3cncn3)(c3ccc(Cl)cc3Cl)O2)cc1 (mixture of isomers) [Ex. 72] | 
2 | 50.0 | >100 |  |  | 3.13 | >100 | >100 | >100 | >100 | 3.13 | 3.13 | 0.78 | 25.0 | 25.0 | 12.5 | 25.0 | 50.0 | FC(Oc1ccc(OCC2COC(Cn3ccnc3)(c3ccc(Cl)cc3Cl)O2)cc1)=C(c1cccc(Cl)c1)C(F)(F)F (mixture of isomers) [Ex. 101] | 
3 | >100 | >100 | 100 | 100 | 12.5 | 100 | >100 | 25.0 | >100 | 6.25 | 3.13 | 0.78 | 50.0 | 12.5 | 12.5 |  |  | COc1ccc(C=C(F)OCC2COC(Cn3cncn3)(c3ccc(Cl)cc3Cl)O2)cc1 (mixture of isomers) [Ex. 74] | 
4 | >100 | >100 |  |  | 6.25 | >100 | >100 | >100 | >100 | 6.25 | 12.5 | 1.56 | >100 | 100 | 100 | 50.0 | 100 | FC(Oc1ccc(OCC2COC(Cn3ccnc3)(c3ccc(Cl)cc3Cl)O2)cc1)=C(c1ccc(Oc2ccccc2)cc1)C(F)(F)F (mixture of isomers) [Ex. 100] | 
5 | 100 | >100 | 100 | 100 | 25.0 | 100 | >100 | 25.0 | 100 | 1.56 | 1.56 | 0.39 | 50.0 | 3.13 | 3.13 |  |  | FC(=Cc1ccc2c(c1)OCO2)OCC1COC(Cn2cncn2)(c2ccc(Cl)cc2Cl)O1 (mixture of isomers) [Ex. 75] | 
6 | >100 | >100 |  |  | 3.13 | >100 | >100 | >100 | >100 | 3.13 | 3.13 | 0.78 | 100 | 25.0 | 12.5 | >100 | >100 | FC(Oc1ccc(OCC2COC(Cn3ccnc3)(c3ccc(Cl)cc3Cl)O2)cc1)=C(c1ccc(C(F)(F)F)cc1)C(F)(F)F (mixture of isomers) [Ex. 97] | 
7 |  |  | 25.0 | 25.0 |  |  |  |  |  |  |  |  |  |  |  |  |  | Cc1cccc(C=C(F)OCC2COC(Cn3ccnc3)(c3ccc(F)cc3F)O2)c1 (mixture of isomers) [Ex. 37] | Minimal inhibitory concentration (MIC) [1]: >100 µg/mL; Minimal inhibitory concentration (MIC) [2]: >100 µg/mL; Minimal inhibitory concentration (MIC) [5]: 3.13 µg/mL; Minimal inhibitory concentration (MIC) [6]: >100 µg/mL; Minimal inhibitory concentration (MIC) [7]: >100 µg/mL; Minimal inhibitory concentration (MIC) [8]: >100 µg/mL; Minimal inhibitory concentration (MIC) [9]: >100 µg/mL; Minimal inhibitory concentration (MIC) [10]: 3.13 µg/mL; Minimal inhibitory concentration (MIC) [11]: 6.25 µg/mL; Minimal inhibitory concentration (MIC) [12]: 0.78 µg/mL; Minimal inhibitory concentration (MIC) [13]: 6.25 µg/mL; Minimal inhibitory concentration (MIC) [14]: 50.0 µg/mL; Minimal inhibitory concentration (MIC) [15]: 25.0 µg/mL
8 |  |  | 12.5 (≈ 26.1 µM) | 25.0 (≈ 52.2 µM) |  |  |  |  |  |  |  |  |  |  |  |  |  | COc1cccc(C=C(F)OCC2COC(Cn3ccnc3)(c3ccc(Cl)cc3Cl)O2)c1 (stereo not drawn) [Ex. 8] | Minimal inhibitory concentration (MIC) [1]: 6.25 µg/mL (≈ 13 µM); Minimal inhibitory concentration (MIC) [2]: 6.25 µg/mL (≈ 13 µM); Minimal inhibitory concentration (MIC) [5]: 1.56 µg/mL (≈ 3.25 µM); Minimal inhibitory concentration (MIC) [6]: 6.25 µg/mL (≈ 13 µM); Minimal inhibitory concentration (MIC) [7]: 12.5 µg/mL (≈ 26.1 µM); Minimal inhibitory concentration (MIC) [8]: 12.5 µg/mL (≈ 26.1 µM); Minimal inhibitory concentration (MIC) [9]: 25.0 µg/mL (≈ 52.2 µM); Minimal inhibitory concentration (MIC) [10]: 3.13 µg/mL (≈ 6.53 µM); Minimal inhibitory concentration (MIC) [11]: 1.56 µg/mL (≈ 3.25 µM); Minimal inhibitory concentration (MIC) [12]: 0.78 µg/mL (≈ 1.63 µM); Minimal inhibitory concentration (MIC) [13]: 6.25 µg/mL (≈ 13 µM); Minimal inhibitory concentration (MIC) [14]: 3.13 µg/mL (≈ 6.53 µM); Minimal inhibitory concentration (MIC) [15]: 1.56 µg/mL (≈ 3.25 µM)
